This note sets out measurements from the NIST ThermoML archive (doi:10.1021/je800481n).

Data set [1] is described as follows: Boiling temperature at pressure P. The note with it: 101.3 kPa; Liquid; Ebulliometric method (Recirculating still).
Data set [2] in a line: refractive index (Na D-line) (dimensionless). The note with it: 101.3 kPa, Liquid, Standard Abbe refractometry.

± gives the expanded uncertainty stated by the source.

With `CNC(C)=O` [N-methylacetamide], the “Boiling temperature at pressure P” value in data set [1] is 206.00 ± 0.12 °C. Further, in data set [2] (301.15 K), the refractive index is listed as 1.42854 ± 0.00037.
For the compound `CC(=O)N(C)C` [N,N-dimethylethanamide], the “Boiling temperature at pressure P” value in data set [1] is 165.62 ± 0.12 °C. For the same compound, in data set [2] (298.15 K), the refractive index is recorded as 1.43507 ± 0.00051.
As for `CC(C)c1ccccc1` [isopropylbenzene], in data set [1], the “Boiling temperature at pressure P” value worked out at 152.29 ± 0.12 °C. In addition, the refractive index in data set [2] (298.15 K) was determined as 1.48829 ± 0.00037.

In general, refractive index refers to the speed of light in vacuum divided by its phase velocity in the sample.
